Test results as given in patent US8017630B2 (priority 2004, dated 2011).
Like-named read-outs stand apart in the source and are kept apart here.

What was measured:
[1] = system: 5HT uptake; format: biochemical, rat
[2] = system: NA uptake; format: biochemical, rat

Compound	5HT uptake % (10) ([1]; hydrochloride) [%]	NA uptake % (10) ([2]; hydrochloride) [%]	melting point [°C]	5HT uptake % (10) [1] [%]	NA uptake % (10) [2] [%]
CN(C)C1(c2ccccn2)CCC(CC(=O)NCCc2c[nH]c3ccccc23)CC1.Cl (centres unmarked) [Example 47, 2-(4-Dimethylamino-4-pyridin-2-ylcyclohexyl)-N-[2-(1H-indol-3-yl)ethyl]acetamide hydrochloride]	46	63	150 to 153	–	–
CN(C)C1(c2ccccn2)CCC(CC(=O)NCCc2c[nH]c3ccccc23)CC1.Cl (centres unmarked) [Example 48, 2-(4-Dimethylamino-4-pyridin-2-ylcyclohexyl)-N-[2-(1H-indol-3-yl)ethyl]acetamide hydrochloride]	85	74	–	–	–
CN(C)C1(c2ccccn2)CCC(CC(=O)NCCCc2ccccc2)CC1.Cl (centres unmarked) [Example 49, 2-(4-Dimethylamino-4-pyridin-2-ylcyclohexyl)-N-(3-phenylpropyl)acetamide hydrochloride]	–	–	218 to 220	32	94
